For test [1], the system named is aggregated human αSyn. Kind of test: Antibody-inducing ability in cynomolgus monkeys: ELISA antibody titer with respect to aggregated human αSyn. In kind it is in vivo. Conditions: i.m. three times at 2-week interval, Alum; AJ conjugates 2,000 μg/monkey, KLH-DMPVDPDN 75 μg/monkey; FIG. 4B. On the procedure: The antibody-inducing ability of the AJ-human αSyn peptide conjugate with respect to human αSyn and aggregated human αSyn in cynomolgus monkeys was evaluated. The AJ-human αSyn peptide conjugates (AJ-p54, AJ-p150, AJ-p283, AJ-p142, and AJ-p273) (2,000 μg/monkey) and KLH-DMPVDPDN (75 μg/monkey) were intramuscularly administered to cynomolgus monkeys (males, 3 to 7 years old, SNBL, Ltd.) three times at a 2-week interval using Alum (InvivoGen, 200 μg/monkey) as an adjuvant. Blood was collected before administration and 4, 6, 8, and 10 weeks after the first administration to recover the serum. ELISA was performed by the following method.
96-well plates were coated with human αSyn (Sigma-Aldrich) or aggregated human αSyn (StressMarq Biosciences Inc.) at 0.2 μg/well or 15 ng/well. After washing with PBST once, blocking was performed with 3% skim milk (FUJIFILM Wako Pure Chemical Corporation). After washing with PBST three times, diluted serum was added to cause a reaction at room temperature for 1 hour. Furthermore, after washing with PBST three times, Goat anti-Monkey IgG-HRP (Bio-Rad Laboratories, Inc.) was added to cause a reaction at room temperature for 1 hour. […] An equal volume of a TMB Stop Solution (KPL) was added to stop the reaction, and the absorbance at 450 nm was measured.
(ELISA stands for enzyme-linked immunosorbent assay.)

Test [2] has as its system aggregated human αSyn. Description: Antibody-inducing ability in mice: ELISA antibody titer of immune serum with respect to aggregated human αSyn. In kind it is in vivo, mouse. As to conditions: for Antibody titer with respect to aggregated human αSyn (N = 4 − 6, mean ± standard deviation): Example 2, serum 2 weeks after second administration; for Antibody titer with respect to aggregated human αSyn, relative to control: mice. On the procedure: (§1) Using the various AJ peptide-human αSyn peptide conjugates produced in Example 1, an antibody-inducing ability with respect to human αSyn in mice was evaluated. The various AJ-human αSyn peptide conjugates (250 μg/mouse) or KLH-DMPVDPDN (25 μg/mouse) in physiological saline were intramuscularly administered to balb/c mice (females, 6 weeks old, CLEA Japan, Inc.) twice at a 2-week interval for immunization using aluminum hydroxide (Alum) (InvivoGen, 50 μg/mouse) as an adjuvant. As a negative control, physiological saline (100 μL/mouse) comprising the same amount of aluminum hydroxide was administered twice. Two weeks after the second administration, serum was recovered to evaluate the antibody titer with respect to human αSyn by ELISA.
(§2) ELISA was performed by the following method. 96-well plates were coated with human αSyn (Sigma) at 0.2 μg/well. After washing with PBST (Phosphate Buffered Saline comprising 0.05% Tween) once, blocking was performed with 3% skim milk (FUJIFILM Wako Pure Chemical Corporation). After washing with PBST three times, diluted serum was added to cause a reaction at room temperature for 1 hour. Furthermore, after washing with PBST three times, Goat anti-mouse IgG-HRP (abcam) was added to cause a reaction at room temperature for 1 hour. After washing with PBST three times, SureBlue TMB Microwell Peroxidase Substrate (KPL) was added to cause a reaction at room temperature for 10 minutes while light shielding. An equal volume of a TMB Stop Solution (KPL) was added to stop the reaction, and the absorbance at 450 nm was measured. ELISA with respect to aggregated human αSyn was performed by coating with the aggregated human αSyn (Stress Marq) at 15 ng/well instead of human αSyn in the above-mentioned method.
The antibody-inducing ability of the AJ-human αSyn peptide conjugates (AJ-p54, AJ-p54-KLH, and AJ-DMPVDPDN) produced in Example 1 with respect to human αSyn and aggregated human αSyn in mice was evaluated. Physiological saline or the AJ-human αSyn peptide conjugate (250 μg/mouse) was intramuscularly administered to balb/c mice (females, 6 weeks old, CLEA Japan, Inc.) twice at a 2-week interval using Alum (InvivoGen, 50 μg/mouse) as an adjuvant. Furthermore, KLH-DMPVDPDN (25 μg/mouse) was administered using Alum (InvivoGen, 50 μg/mouse) as an adjuvant. Two weeks after the second administration, serum was recovered to evaluate the antibody titer by ELISA. ELISA was performed by the method described in Example 2.
The antibody-inducing ability of the produced various human αSyn peptide conjugates with respect to human αSyn and aggregated human αSyn in the mice was evaluated by the method described in Example 2 using the antibody titers with respect to human αSyn and aggregated human αSyn of the mouse immune serum. […] In Table 6, the antibody titer of AJ-p242, AJ-p244, AJ-p347, or AJ-p361 is shown with the antibody titer of AJ-p150 as a control being 1 (logarithm). In addition, the antibody titers of AJ-p229, AJ-p237, and AJ-p298 are shown with the antibody titer of AJ-p54 as a control being 1 (logarithm).
The antibody-inducing ability of the AJ-human αSyn peptide conjugates with a modified linker with respect to human αSyn and aggregated human αSyn in the mice was evaluated using the antibody titers with respect to human αSyn and aggregated human αSyn of the mouse immune serum. […] In Table 8, the antibody titers of the AJ-human αSyn peptide conjugates with various modified linkers comprising p54 are shown with the antibody titer of AJ-p54 as a control being 1 (logarithm). In addition, the antibody titers of the AJ-human αSyn peptide conjugates with various modified linkers comprising p150 are shown with the antibody titer of AJ-p150 as a control being 1 (logarithm).

The subject of test [3] is human αSyn. Kind of test: Antibody-inducing ability in mice: ELISA antibody titer of immune serum with respect to human αSyn. The format is in vivo, mouse. On the set-up: key to Antibody titer with respect to human αSyn, relative to control: log titer relative to control conjugate (control = 1). Conditions: for Antibody titer with respect to human αSyn (N = 4 − 6, mean ± standard deviation): Example 2, serum 2 weeks after second administration. On the procedure:
as §1
as §2, with “above-mentioned method. […]” for “above-mentioned method.”
The antibody-inducing ability of the produced various human αSyn peptide conjugates with respect to human αSyn and aggregated human αSyn in the mice was evaluated by the method described in Example 2 using the antibody titers with respect to human αSyn and aggregated human αSyn of the mouse immune serum. […] In Table 6, the antibody titer of AJ-p242, AJ-p244, AJ-p347, or AJ-p361 is shown with the antibody titer of AJ-p150 as a control being 1 (logarithm). In addition, the antibody titers of AJ-p229, AJ-p237, and AJ-p298 are shown with the antibody titer of AJ-p54 as a control being 1 (logarithm). […]

Test [4] deals with aggregated human αSyn (Homo sapiens, UniProt P37840). Kind of test: Aggregated human αSyn-neutralizing effect of antibody induced in mice: phosphorylation of human αSyn in SH-SY5Y cells. The format is cell-based. Further details: purchased Stress Marq (StressMarq Biosciences Inc.). Conditions: antibody (100 μg/mL) induced in C57BL/6 mice by the vaccine; FIG. 1B, isotype control = 100. The procedure:
The aggregated human αSyn-neutralizing effect of the antibody induced in the mice by the AJ-human αSyn peptide conjugate (AJ-p54) produced in Example 1 was evaluated. Physiological saline or the AJ-human αSyn peptide conjugate (250 μg/mouse) was intramuscularly administered to C57BL/6 mice (males, 6 weeks old, CLEA Japan, Inc.) four times at a 2-week interval using CFA (DIFCO) as an adjuvant. Furthermore, KLH-DMPVDPDN (25 μg/mouse) was administered using Alum (InvivoGen, 50 μg/mouse) as an adjuvant. Two weeks after the fourth administration, serum was recovered. After recovering the antibodies comprised in the serum by Protein G HP SpinTrap (Cytiva), the human αSyn- and aggregated human αSyn-neutralizing effect was evaluated by a method described below.
As the human αSyn- and aggregated human αSyn-neutralizing effect, the influence on phosphorylation of human αSyn in SH-SY5Y cells (ATCC) was evaluated. The SH-SY5Y cells were seeded in a 96-well plate at 2×10^4 cells/well and cultured under the conditions of 37° C. and 5% CO2. […] After fixing the cells with a 4% paraformaldehyde/phosphate buffer solution (FUJIFILM Wako Pure Chemical Corporation), phosphorylated human αSyn was stained with a fluorescence-labeled anti-phosphorylated αSyn antibody (Cell Signaling). The amount of phosphorylated human αSyn was evaluated by image analysis using ArrayScan (Thermo Fisher Scientific Inc.). […]

Where [5] appears, read: balb/c mice, i.m. twice at 2-week interval, Alum, AJ conjugates 250 μg/mouse, KLH-DMPVDPDN 25 μg/mouse.
The mark [6] stands for this setting: Example 4, balb/c mice, i.m. twice at 2-week interval, Alum, AJ conjugates 250 μg/mouse, KLH-DMPVDPDN 25 μg/mouse.

Non-standard residues stand in square brackets, D forms with d. No end group written: not given here. Ahx = NCCCCCC(=O)O

Consider “ELKLIFLHRLKRLRKRLKRKXKKTQLGKND (ELKLIFLHRLKRLRKRLKRK[Ahx]KKTQLGKND) [AJ-p273]”, for which the “Induction of the antibody to aggregated human αSyn in cynomolgus monkeys” value in test [1] was “not induced”. The “Antibody titer with respect to aggregated human αSyn (N = 4 − 6, mean ± standard deviation)” value in test [2] (setting [5]) was determined as 704 ± 896. Moreover, the “Antibody titer with respect to human αSyn (N = 4 − 6, mean ± standard deviation)” value in test [3] (setting [5]) came to 3328 ± 3278.
Regarding “ELKLIFLHRLKRLRKRLKRKXKKDQLGKNE (ELKLIFLHRLKRLRKRLKRK[Ahx]KKDQLGKNE) [AJ-p54, AJ peptide linked to p54 via ε-Acp (X)]”, the “Antibody titer with respect to aggregated human αSyn (N = 4 − 6, mean ± standard deviation)” value in test [2] (setting [5]) turned out to be 768 ± 862. For the same sequence, the “Induction of the antibody to aggregated human αSyn (in words)” value in test [2] (Example 4, balb/c mice) is reported as “induced”. The “Antibody titer with respect to aggregated human αSyn (mean ± standard deviation)” value in test [2] (setting [6]) is 768 ± 296. For the same sequence, the “Antibody titer with respect to aggregated human αSyn, relative to control” value in test [2] (Example 9, N = 4, titer of AJ-p150 or AJ-p54 as control being 1 (logarithm)) amounted to 1; in test [2] (Example 10, modified linker, titer of AJ-p54 or AJ-p150 as control being 1 (logarithm)), 1. The “Antibody titer with respect to human αSyn (N = 4 − 6, mean ± standard deviation)” value in test [3] (setting [5]) stood at 4096 ± 2896. For the same sequence, the “Induction of the antibody to human αSyn (in words)” value in test [3] (Example 3, mice) is given as “induced to the same extent”; in test [3] (Example 4, balb/c mice) it was “induced”. Also, the “Antibody titer (N = 4 − 6, mean ± standard deviation) with respect to human αSyn” value in test [3] (Example 3, mice, same manner as Example 2) amounted to 1434 ± 1510. For the same sequence, the “Antibody titer with respect to human αSyn (mean ± standard deviation)” value in test [3] (setting [6]) is reported as 1434 ± 1510. The “Antibody titer with respect to human αSyn, relative to control” value in test [3] (Example 9, mice, N = 4, titer of AJ-p150 or AJ-p54 as control being 1 (logarithm)) is recorded as 1; in test [3] (Example 10, modified linker, mice, titer of AJ-p54 or AJ-p150 as control being 1 (logarithm)) it was 1. For the same sequence, the “Phosphorylation of human αSyn in SH-SY5Y cells to which aggregated human αSyn was added” value in test [4] is recorded as “inhibited”.

Values taken from US20240270801A1, “EPITOPE PEPTIDE OF HUMAN ALPHA-SYNUCLEIN AND PHARMACEUTICAL COMPOSITION INCLUDING SAID PEPTIDE” (Sumitomo Pharma Co., Ltd., priority 2021, published 2024).
